Source: patent US9394297B2, “Amides as pim inhibitors” (AMGEN INC., priority 2012, dated 2016)
Read-outs that look alike come from different tables or passages of the source.

Columns and labels:
Pim-1 = Pim-1 (Homo sapiens (Human), UniProt P11309); assay: Pim-Mn enzyme assay (HTRF, 384-well), Pim-1; format: biochemical; details: read-out: Pim-1-Mn IC50 IP
Pim-2 = Pim-2 (Homo sapiens (Human), UniProt Q9P1W9); assay: Pim-Mn enzyme assay (HTRF, 384-well), Pim-2; format: biochemical; details: Pim-2 enzyme 0.5 pM, ATP 1.5 μM, BAD (S112) 0.5 μM, HTRF, 22-point curve; read-out: Pim-2-Mn IC50 IP
[1] = system: KMS-12-BM myeloma cell line; assay: Pim KMS-12 cell assay (phospho-BAD S112 / total BAD, MSD)
[2] = Pim-1 enzyme 5 pM, ATP 1.5 μM, BAD (S112) 0.5 μM, HTRF, 22-point curve
[3] = Homo sapiens, KMS-12-BM, read-out: KMS-12-BM IC50 IP
[4] = Homo sapiens, KMS-12-BM, read-out: KMS-12-BM IC50 IP, KMS-12-BM cells, phospho-BAD (S112) vs total BAD, 1 hour 50 min with compound
[5] = read-out: KMS-12-BM IC50 IP, KMS-12-BM cells, phospho-BAD (S112) vs total BAD, 1 hour 50 min with compound

Sequence of Pim-1 (P11309 whole entry): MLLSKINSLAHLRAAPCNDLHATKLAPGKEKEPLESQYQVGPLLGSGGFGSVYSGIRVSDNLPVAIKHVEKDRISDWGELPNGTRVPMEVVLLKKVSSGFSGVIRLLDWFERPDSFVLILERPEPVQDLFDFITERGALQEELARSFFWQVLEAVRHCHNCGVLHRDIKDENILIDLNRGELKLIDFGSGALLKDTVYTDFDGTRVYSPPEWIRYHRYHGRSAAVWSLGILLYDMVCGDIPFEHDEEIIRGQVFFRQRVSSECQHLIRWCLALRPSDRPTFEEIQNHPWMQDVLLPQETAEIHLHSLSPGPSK
Sequence of Pim-2 (Q9P1W9 whole entry): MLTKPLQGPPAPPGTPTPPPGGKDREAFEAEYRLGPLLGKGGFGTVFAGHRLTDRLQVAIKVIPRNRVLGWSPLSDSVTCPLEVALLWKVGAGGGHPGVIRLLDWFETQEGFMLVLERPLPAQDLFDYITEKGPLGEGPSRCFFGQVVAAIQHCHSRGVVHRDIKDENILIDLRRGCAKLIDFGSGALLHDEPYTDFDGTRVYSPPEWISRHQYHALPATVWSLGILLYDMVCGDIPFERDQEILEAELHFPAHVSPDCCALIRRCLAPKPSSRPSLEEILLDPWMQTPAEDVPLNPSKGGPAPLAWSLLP

Row | Compound | IC50 (Pim-1; [2]) | IC50 (Pim-2) | IC50 [1, 3] | IC50 [1, 4] | IC50 (Pim-1) | IC50 [1, 5]
1 | Cc1nc2cccc(-c3cc4c([nH]3)CCNC4=O)c2nc1N(C)C(C)(C)C [Example 222, 2-(3-(tert-butyl(methyl)amino)-2-methylquinoxalin-5-yl)-6,7-dihydro-1H-pyrrolo[3,2-c]pyridin-4(5H)-one] | 3.5 nM | 2.1 nM | 397 nM | – | – | –
2 | CC(C)(C)Nc1cnc2cccc(-c3cc4c([nH]3)CCNC4=O)c2n1 [Example 210, 2-(3-(tert-butylamino)quinoxalin-5-yl)-6,7-dihydro-1H-pyrrolo[3,2-c]pyridin-4(5H)-one] | 0.2 nM | 0.3 nM | – | 60.1 nM | – | –
3 | CC1(C)COCCN1c1cnc2cccc(-c3cc4c([nH]3)CCNC4=O)c2n1 [Example 213, 2-(3-(3,3-dimethylmorpholino)quinoxalin-5-yl)-6,7-dihydro-1H-pyrrolo[3,2-c]pyridin-4(5H)-one] | – | 3.2 nM | – | 227 nM | 1.6 nM | –
4 | Cc1nc2cccc(-c3cc4c([nH]3)CCNC4=O)c2nc1NC1CCOC1 (racemic) [Example 71, 2-(2-methyl-3-((±)-tetrahydro-3-furanylamino)-5-quinoxalinyl)-1,5,6,7-tetrahydro-4H-pyrrolo[3,2-c]pyridin-4-one] | 6.4 nM | 6.1 nM | – | 474 nM | – | –
5 | Cc1nc2cccc(-c3cc4c(=O)[nH]cnc4[nH]3)c2nc1NC1CCC1 [Example 260, 6-(3-(cyclobutylamino)-2-methylquinoxalin-5-yl)-3H-pyrrolo[2,3-d]pyrimidin-4(7H)-one] | 1.6 nM | 1.23 nM | – | 243 nM | – | –
6 | COc1nc2cccc(-c3cc4c([nH]3)CCNC4=O)c2nc1NC(C)(C)C [Example 276, 2-(3-(tert-butylamino)-2-methoxy-5-quinoxalinyl)-1,5,6,7-tetrahydro-4H-pyrrolo[3,2-c]pyridin-4-one] | 1.8 nM | 5 nM | – | 1220 nM | – | –
7 | CC1(C)CNCCN1c1cnc2cccc(-c3cc4c([nH]3)CCNC4=O)c2n1 [Example 217, 2-(3-(2,2-dimethylpiperazin-1-yl)quinoxalin-5-yl)-6,7-dihydro-1H-pyrrolo[3,2-c]pyridin-4(5H)-one] | 2 nM | 5.3 nM | – | 933 nM | – | –
8 | Cc1nc2cccc(-c3cc4c([nH]3)CCNC4=O)c2nc1N[C@H](C)C1CC1 [Example 271, 2-(3-(((1R)-1-cyclopropylethyl)amino)-2-methyl-5-quinoxalinyl)-1,5,6,7-tetrahydro-4H-pyrrolo[3,2-c]pyridin-4-one] | 1.3 nM | 2 nM | – | 418 nM | – | –
9 | Cc1nc2cccc(-c3cc4c([nH]3)CCNC4=O)c2nc1NC1CC(O)C1 (stereo not drawn) [Example 72, 2-(3-((3-hydroxycyclobutyl)amino)-2-methyl-5-quinoxalinyl)-1,5,6,7-tetrahydro-4H-pyrrolo[3,2-c]pyridin-4-one] | 3.1 nM | 1.9 nM | – | 713 nM | – | –
10 | Cc1nc2cccc(-c3cc4c([nH]3)CCNC4=O)c2nc1N [Example 218, 2-(3-amino-2-methylquinoxalin-5-yl)-6,7-dihydro-1H-pyrrolo[3,2-c]pyridin-4(5H)-one] | 36 nM | 17.4 nM | – | 1090 nM | – | –
11 | COCC(C)(C)Nc1nc2c(-c3cc4c([nH]3)CCNC4=O)cccc2nc1C [Example 63, 2-(3-((2-methoxy-1,1-dimethylethyl)amino)-2-methyl-5-quinoxalinyl)-1,5,6,7-tetrahydro-4H-pyrrolo[3,2-c]pyridin-4-one] | 4.3 nM | 5.4 nM | – | 513 nM | – | –
12 | Cc1nc2cccc(-c3cc4c([nH]3)CCNC4=O)c2nc1NC1(C)CCOCC1 [Example 203, 2-(2-methyl-3-((4-methyltetrahydro-2H-pyran-4-yl)amino)quinoxalin-5-yl)-6,7-dihydro-1H-pyrrolo[3,2-c]pyridin-4(5H)-one] | 1.2 nM | 5.6 nM | – | 232 nM | – | –
13 | 2′-(3-(cyclopropylamino)-6-fluoro-2-methylquinoxalin-5-yl)-1′H-spiro[cyclopropane-1,6′-pyrrolo[3,4-b]pyrrol]-4′(5′H)-one [Example 283] | 3.3 nM | 0.8 nM | – | – | – | 199 nM
14 | CC1(Nc2cnc3cccc(-c4cc5c([nH]4)CCNC5=O)c3n2)CC1 [Example 211, 2-(3-((1-methylcyclopropyl)amino)quinoxalin-5-yl)-6,7-dihydro-1H-pyrrolo[3,2-c]pyridin-4(5H)-one] | 0.2 nM | 0.3 nM | – | 49.7 nM | – | –
15 | Cc1nc2cccc(-c3cc4c(=O)[nH]cnc4[nH]3)c2nc1NC(C)(C)C [Example 261, 6-(3-(tert-butylamino)-2-methylquinoxalin-5-yl)-3H-pyrrolo[2,3-d]pyrimidin-4(7H)-one] | 1.22 nM | 1.29 nM | – | 252 nM | – | –
16 | Cc1nc2cccc(-c3cc4c([nH]3)CCNC4=O)c2nc1NC1(C)CCCC1 [Example 67, 2-(2-methyl-3-((1-methylcyclopentyl)amino)-5-quinoxalinyl)-1,5,6,7-tetrahydro-4H-pyrrolo[3,2-c]pyridin-4-one] | 0.4 nM | 0.6 nM | – | 167 nM | – | –
17 | Cc1nc2cccc(-c3cc4c([nH]3)CCNC4=O)c2nc1NC1(C)CC1 [Example 202, 2-(2-methyl-3-((1-methylcyclopropyl)amino)quinoxalin-5-yl)-6,7-dihydro-1H-pyrrolo[3,2-c]pyridin-4(5H)-one] | 0.3 nM | 0.3 nM | – | 41.3 nM | – | –
18 | CC(C)(C)Nc1cnc2cccc(-c3cc4n(c3)CCNC4=O)c2n1 [Example 173, 7-(3-(tert-butylamino)quinoxalin-5-yl)-3,4-dihydropyrrolo[1,2-a]pyrazin-1(2H)-one] | 1.3 nM | 1.4 nM | – | 181 nM | – | –
19 | Cc1nc2cccc(-c3cc4c([nH]3)CCNC4=O)c2nc1NCC1(C)COC1 [Example 281, 2-(2-methyl-3-(((3-methyl-3-oxetanyl)methyl)amino)-5-quinoxalinyl)-1,5,6,7-tetrahydro-4H-pyrrolo[3,2-c]pyridin-4-one] | 6.7 nM | 2.8 nM | – | 533 nM | – | –
20 | Cc1nc2cccc(-c3cc4c([nH]3)CCNC4=O)c2nc1N[C@H]1CCCNC1 [Example 76, (S)-2-(2-methyl-3-(piperidin-3-ylamino)quinoxalin-5-yl)-6,7-dihydro-1H-pyrrolo[3,2-c]pyridin-4(5H)-one] | 8.1 nM | 27 nM | – | 6130 nM | – | –
21 | Cc1nc2cccc(-c3cc4c([nH]3)CCNC4=O)c2nc1N[C@@H]1CCCNC1 [Example 75, 2-(2-methyl-3-((3R)-3-piperidinylamino)-5-quinoxalinyl)-1,5,6,7-tetrahydro-4H-pyrrolo[3,2-c]pyridin-4-one] | 0.6 nM | 1.2 nM | – | 892 nM | – | –
22 | Cc1nc2cccc(-c3cc4c([nH]3)CCNC4=O)c2nc1NC1CCCC(O)C1 (racemic) [Example 204, 2-(3-((3-hydroxycyclohexyl)amino)-2-methylquinoxalin-5-yl)-6,7-dihydro-1H-pyrrolo[3,2-c]pyridin-4(5H)-one] | 2.6 nM | 3.5 nM | – | 445 nM | – | –
23 | Cc1nc2cccc(-c3cc4n(c3)CCNC4=O)c2nc1NC(C)(C)C [Example 174, 7-(3-(tert-butylamino)-2-methylquinoxalin-5-yl)-3,4-dihydropyrrolo[1,2-a]pyrazin-1(2H)-one] | 5.9 nM | 3.5 nM | – | 336 nM | – | –
24 | O=C1NCCc2[nH]c(-c3cccc4ccc(NC5CC5)nc34)cc21 [Example 99, 2-(2-(cyclopropylamino)quinolin-8-yl)-6,7-dihydro-1H-pyrrolo[3,2-c]pyridin-4(5H)-one] | 1.1 nM | 7 nM | – | 723 nM | – | –
25 | COCC(C)(C)Nc1nc2c(-c3cc4c([nH]3)CCNC4=O)cccc2nc1C [Example 66, 2-(3-((2-methoxy-1,1-dimethylethyl)amino)-2-methyl-5-quinoxalinyl)-1,5,6,7-tetrahydro-4H-pyrrolo[3,2-c]pyridin-4-one] | 2.7 nM | 0.7 nM | – | – | – | 215 nM
26 | Cc1nc2cccc(-c3cc4c([nH]3)CCNC4=O)c2nc1NC1CCCCC1O (racemic) [Example 205, 2-(3-((2-hydroxycyclohexyl)amino)-2-methylquinoxalin-5-yl)-6,7-dihydro-1H-pyrrolo[3,2-c]pyridin-4(5H)-one] | 4.9 nM | 4.5 nM | – | 1140 nM | – | –
27 | Cc1nc2cccc(-c3cc4c([nH]3)C3(CC3)CNC4=O)c2nc1NC1CC1 [Example 77, 2′-(3-(cyclopropylamino)-2-methyl-5-quinoxalinyl)-5′,6′-dihydrospiro[cyclopropane-1,7′-pyrrolo[3,2-c]pyridin]-4′(1′H)-one] | 1.6 nM | 3.8 nM | 494 nM | – | – | –
28 | Cc1nc2cccc(-c3cc4c([nH]3)CCNC4=O)c2nc1NCC(C)(C)O [Example 148, 2-(3-((2-hydroxy-2-methylpropyl)amino)-2-methylquinoxalin-5-yl)-6,7-dihydro-1H-pyrrolo[3,2-c]pyridin-4(5H)-one] | 8 nM | 8.7 nM | – | 420 nM | – | –
29 | CCNc1nc2c(-c3cc4c([nH]3)CCNC4=O)cccc2nc1C [Example 69, 2-(3-(ethylamino)-2-methyl-5-quinoxalinyl)-1,5,6,7-tetrahydro-4H-pyrrolo[3,2-c]pyridin-4-one] | 3.4 nM | 1.7 nM | 223 nM | – | – | –
